Measured values taken from patent US20250221410A1, “SUBSTITUTED 2-C-AZINES AND SALTS THEREOF, AND USE THEREOF AS HERBICIDAL ACTIVE SUBSTANCES” (BAYER AKTIENGESELLSCHAFT, priority 2022, published 2025).

Experiments:
VERPE: Veronica persica [1] = assay: Post-emergence herbicidal efficacy at 80 g/ha, VERPE; format: in vivo; details: visual rating about 3 weeks after treatment vs untreated controls
In short: (§1)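 Pot-grown weeds in sandy loam were sprayed at one-leaf stage (2–3 weeks post-sowing) with WP or EC formulations plus 0.5% additive at 600 l/ha water. About 3 weeks later in the greenhouse, activity was rated visually against untreated controls, 0% = like control, 100% = dead.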

POLCO [2] = assay: Post-emergence herbicidal efficacy at 80 g/ha, POLCO; format: in vivo, Polygonum convolvulus; details: visual rating about 3 weeks after treatment vs untreated controls
Protocol: (§2) Seeds of monocotyledonous and dicotyledonous weeds and crop plants were placed in sandy loam in plastic or organic planting pots, covered with soil and cultivated in a greenhouse under controlled growth conditions. 2 to 3 weeks after sowing, the test plants were treated at the one-leaf stage. The compounds of the invention, formulated in the form of wettable powders (WP) or as emulsion concentrates (EC), were then sprayed onto the green parts of the plants as aqueous suspension or emulsion with addition of 0.5% additive at a water application rate of 600 l/ha (converted). After the test plants had been kept in the greenhouse under optimum growth conditions for about 3 weeks, the activity of the preparations was rated visually in comparison to untreated controls. For example, 100% activity=the plants have died, 0% activity=like control plants. Tables B1 to B10 below show the effects of selected compounds of the general formula (I) according to Table 1 on various harmful plants and an application rate corresponding to 80 g/ha, which were obtained by the experimental procedure mentioned above.

POLCO [3] = assay: Pre-emergence herbicide efficacy at 80 g/ha, POLCO; format: in vivo; details: Polygonum convolvulus, scored visually after about 3 weeks
In short: (§3)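 Seeds are placed in pots and covered with soil, then the soil surface is treated with the formulated compound in water plus 0.5% additive (600 l/ha equivalent). Plants grow under good greenhouse conditions, and damage is rated visually as a percentage of untreated controls after roughly 3 weeks.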

[4] = system: ALOMY: Alopecurus myosuroides; assay: Pre-emergence herbicide efficacy at 80 g/ha, ALOMY; format: in vivo; details: scored visually after about 3 weeks
Source text: (§4) Seeds of monocotyledonous and dicotyledonous weed plants and crop plants were placed in plastic or organic planting pots and covered with soil. The compounds of the invention, formulated in the form of wettable powders (WP) or as emulsion concentrates (EC), were then applied to the surface of the covering soil as aqueous suspension or emulsion with addition of 0.5% additive at a water application rate equivalent to 600 l/ha. After the treatment, the pots were placed in a greenhouse and kept under good growth conditions for the test plants. After about 3 weeks, the efficacy of the preparations was scored visually in comparison with untreated controls as percentages. For example, 100% activity=the plants have died, 0% activity=like control plants. Tables D1 to D12 below show the effects of selected compounds of the general formula (I) according to Table 1 on various harmful plants and an application rate corresponding to 80 g/ha, which were obtained by the experimental procedure mentioned above.

[5] = system: MATIN: Matricaria inodora; assay: Pre-emergence herbicide efficacy at 80 g/ha, MATIN; format: in vivo; details: scored visually after about 3 weeks
Source text: as §4

[6] = system: DIGSA: Digitaria sanguinalis; assay: Pre-emergence herbicide efficacy at 80 g/ha, DIGSA; format: in vivo; details: scored visually after about 3 weeks
In short: as §3

VERPE: Veronica persica [7] = assay: Pre-emergence herbicide efficacy at 80 g/ha, VERPE; format: in vivo; details: scored visually after about 3 weeks
In short: as §3

[8] = system: ECHCG: Echinochloa crus-galli; assay: Post-emergence herbicidal efficacy at 80 g/ha, ECHCG; format: in vivo; details: visual rating about 3 weeks after treatment vs untreated controls
Protocol: as §2

[9] = system: ALOMY: Alopecurus myosuroides; assay: Post-emergence herbicidal efficacy at 80 g/ha, ALOMY; format: in vivo; details: visual rating about 3 weeks after treatment vs untreated controls
Protocol: as §2

[10] = system: ECHCG: Echinochloa crus-galli; assay: Pre-emergence herbicide efficacy at 80 g/ha, ECHCG; format: in vivo; details: scored visually after about 3 weeks
Source text: as §4

[11] = system: AMARE: Amaranthus retroflexus; assay: Post-emergence herbicidal efficacy at 80 g/ha, AMARE; format: in vivo; details: visual rating about 3 weeks after treatment vs untreated controls
In short: as §1

SETVI: Setaria viridis [12] = assay: Post-emergence herbicidal efficacy at 80 g/ha, SETVI; format: in vivo; details: visual rating about 3 weeks after treatment vs untreated controls
Protocol: as §2

LOLRI: Lolium rigidum = assay: Pre-emergence herbicide efficacy at 80 g/ha, LOLRI; format: in vivo; details: scored visually after about 3 weeks
Source text: as §4

SETVI: Setaria viridis [13] = assay: Pre-emergence herbicide efficacy at 80 g/ha, SETVI; format: in vivo; details: scored visually after about 3 weeks
Source text: as §4

[14] = system: AMARE: Amaranthus retroflexus; assay: Pre-emergence herbicide efficacy at 80 g/ha, AMARE; format: in vivo; details: scored visually after about 3 weeks
In short: as §3

[15] = system: DIGSA: Digitaria sanguinalis; assay: Post-emergence herbicidal efficacy at 80 g/ha, DIGSA; format: in vivo; details: visual rating about 3 weeks after treatment vs untreated controls
Protocol: as §2

[16] = system: ABUTH: Abutilon theophrasti; assay: Post-emergence herbicidal efficacy at 80 g/ha, ABUTH; format: in vivo; details: rated visually after about 3 weeks vs untreated controls, 100% = plants have died, 0% = like control plants
Protocol: as §2

[17] = system: ABUTH: Abutilon theophrasti; assay: Pre-emergence herbicide efficacy at 80 g/ha, ABUTH; format: in vivo; details: scored visually after about 3 weeks
In short: as §3

FC(F)c1cc(-c2c(Cl)cccc2Cc2ncc(Cl)cn2)on1 [Example 1-140]
90%: Pre-emergence efficacy against POLCO in % (POLCO [3]) | Pre-emergence efficacy against ALOMY in % [4] | Post-emergence efficacy against ECHCG [8] | Pre-emergence efficacy against LOLRI in % (LOLRI: Lolium rigidum) | Post-emergence efficacy against DIGSA [15]
100%: Post-emergence efficacy against VERPE (VERPE: Veronica persica [1]) | Post-emergence efficacy against POLCO (POLCO [2]) | Pre-emergence efficacy against DIGSA in % [6] | Pre-emergence efficacy against VERPE in % (VERPE: Veronica persica [7]) | Pre-emergence efficacy against ECHCG in % [10] | Post-emergence efficacy against AMARE [11] | Pre-emergence efficacy against SETVI in % (SETVI: Setaria viridis [13]) | Pre-emergence efficacy against AMARE in % [14] | Post-emergence efficacy at 80 g/ha against ABUTH in % [16] | Pre-emergence efficacy against ABUTH in % [17]
80%: Pre-emergence efficacy against MATIN in % [5] | Post-emergence efficacy against ALOMY [9] | Post-emergence efficacy against SETVI (SETVI: Setaria viridis [12])
